Test results reported in patent US10363239B2, “Method for inhibiting growth of cancer cells” (Pain Therapeutics, Inc., priority 2013, dated 2019).

molecular target: FLNA pentapeptide of SEQ ID NO: 1 (Bn-VAKGL) (Homo sapiens, UniProt P21333); assay: FITC-NLX-based FLNA screening assay (inhibition of FITC-naloxone binding to Bn-VAKGL on streptavidin plates); settings: FLNA-binding compound 0.01 μM; 10 nM FITC-NLX

Structure (SMILES) | Percent Binding Inhibition [%]
COc1ccc(OCC(O)CN2CCCc3ccccc32)cc1 (stereo not drawn) [Compound A0067] | 32.7

same assay, conditions: FLNA-binding compound 0.01 μM; 10 nM FITC-NLX; read-out: Percent Binding Inhibition

Structure (SMILES) | inhibition at 0.01 µM [%]
CCN1CCC2(CC1)OCCN2S(=O)(=O)c1ccc(C(C)=O)cc1 [Compound C0094M] | 43
CC(=O)c1ccc(OCC(O)CN2CC(C)OC(C)C2)cc1 (stereo not drawn) [Compound A0044] | 32.4
O=[N+]([O-])c1ccc(S(=O)(=O)N2CCC3(CC2)NCCO3)cc1 [Compound C0040] | 38.4
CC1CN(CC(O)COC2CCCCC2)CC(C)O1 (stereo not drawn) [Compound A0017] | 29.8
CC1CN(CC(O)COc2cccc(C(F)(F)F)c2)CC(C)O1 (stereo not drawn) [Compound A0051] | 45.9

same assay, conditions: FLNA-binding compound 0.1 μM; 10 nM FITC-NLX

Structure (SMILES) | Percent Binding Inhibition [%]
COc1ccc(OCC(O)CN2CCCc3ccccc32)cc1 (stereo not drawn) [Compound A0067] | 39.1

same assay, conditions: FLNA-binding compound 0.1 μM; 10 nM FITC-NLX; read-out: Percent Binding Inhibition

Structure (SMILES) | inhibition at 0.1 µM [%]
CCN1CCC2(CC1)OCCN2S(=O)(=O)c1ccc(C(C)=O)cc1 [Compound C0094M] | 52.8
CC(=O)c1ccc(OCC(O)CN2CC(C)OC(C)C2)cc1 (stereo not drawn) [Compound A0044] | 36.9
O=[N+]([O-])c1ccc(S(=O)(=O)N2CCC3(CC2)NCCO3)cc1 [Compound C0040] | 46.3
CC1CN(CC(O)COC2CCCCC2)CC(C)O1 (stereo not drawn) [Compound A0017] | 38.6
CC1CN(CC(O)COc2cccc(C(F)(F)F)c2)CC(C)O1 (stereo not drawn) [Compound A0051] | 45.4

same assay, conditions: FLNA-binding compound 1 μM; 10 nM FITC-NLX

Structure (SMILES) | Percent Binding Inhibition [%]
COc1ccc(OCC(O)CN2CCCc3ccccc32)cc1 (stereo not drawn) [Compound A0067] | 44.3

same assay, conditions: FLNA-binding compound 1 μM; 10 nM FITC-NLX; read-out: Percent Binding Inhibition

Structure (SMILES) | inhibition at 1 µM [%]
CCN1CCC2(CC1)OCCN2S(=O)(=O)c1ccc(C(C)=O)cc1 [Compound C0094M] | 57.5
CC(=O)c1ccc(OCC(O)CN2CC(C)OC(C)C2)cc1 (stereo not drawn) [Compound A0044] | 39.6
O=[N+]([O-])c1ccc(S(=O)(=O)N2CCC3(CC2)NCCO3)cc1 [Compound C0040] | 55.9
CC1CN(CC(O)COC2CCCCC2)CC(C)O1 (stereo not drawn) [Compound A0017] | 44
CC1CN(CC(O)COc2cccc(C(F)(F)F)c2)CC(C)O1 (stereo not drawn) [Compound A0051] | 52.1

same assay, conditions: read-out: Percent Binding Inhibition, FLNA-binding compound 0.01 μM; 10 nM FITC-NLX

Structure (SMILES) | inhibition at 0.01 µM [%]
COc1c2c(cc3c1C(CC(=O)Cc1ccc(C#N)cc1)[N+](C)(C)CC3)OCO2 (stereo not drawn) [Compound B0012] | 39.4

same assay, conditions: read-out: Percent Binding Inhibition, FLNA-binding compound 0.1 μM; 10 nM FITC-NLX

Structure (SMILES) | inhibition at 0.1 µM [%]
COc1c2c(cc3c1C(CC(=O)Cc1ccc(C#N)cc1)[N+](C)(C)CC3)OCO2 (stereo not drawn) [Compound B0012] | 46.9

same assay, conditions: read-out: Percent Binding Inhibition, FLNA-binding compound 1 μM; 10 nM FITC-NLX

Structure (SMILES) | inhibition at 1 µM [%]
COc1c2c(cc3c1C(CC(=O)Cc1ccc(C#N)cc1)[N+](C)(C)CC3)OCO2 (stereo not drawn) [Compound B0012] | 51.7

tested on: mu opiate receptor (MOR); assay: MOR agonist activity using [35S]GTPγS binding assay in striatal membranes; type: biochemical; settings: 0.1 μM compound
Summary of the method: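 Striatal membranes (200 μg) were preincubated 5 min at 30 °C in HEPES pH 7.5 with 100 mM NaCl, 1 mM MgCl2 and 0.5 nM [35S]GTPγS, then 5 min more with 0.1–10 μM compound. Gαo was immunoprecipitated and bound radioactivity counted by scintillation.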

Structure (SMILES) | MOR agonist activity ([35S]GTPγS binding), FLNA-Binding Compound as Agonist 0.1 μM [%]
COc1ccc(OCC(O)CN2CCCc3ccccc32)cc1 (stereo not drawn) [Compound A0067] | 170.8
CC(=O)c1ccc(OCC(O)CN2CC(C)OC(C)C2)cc1 (stereo not drawn) [Compound A0044] | 176.2
CC1CN(CC(O)COC2CCCCC2)CC(C)O1 (stereo not drawn) [Compound A0017] | 161.9
CC1CN(CC(O)COc2cccc(C(F)(F)F)c2)CC(C)O1 (stereo not drawn) [Compound A0051] | 290.4

same assay, conditions: 0.1 μM compound relative to DAMGO

Structure (SMILES) | % DAMGO (0.1 μM) [%]
COc1ccc(OCC(O)CN2CCCc3ccccc32)cc1 (stereo not drawn) [Compound A0067] | 99.2
CC(=O)c1ccc(OCC(O)CN2CC(C)OC(C)C2)cc1 (stereo not drawn) [Compound A0044] | 89.8
CC1CN(CC(O)COC2CCCCC2)CC(C)O1 (stereo not drawn) [Compound A0017] | 96.9
CC1CN(CC(O)COc2cccc(C(F)(F)F)c2)CC(C)O1 (stereo not drawn) [Compound A0051] | 148.0

same assay, conditions: 1 μM compound

Structure (SMILES) | MOR agonist activity ([35S]GTPγS binding), FLNA-Binding Compound as Agonist 1 μM [%]
COc1ccc(OCC(O)CN2CCCc3ccccc32)cc1 (stereo not drawn) [Compound A0067] | 254.4
CC(=O)c1ccc(OCC(O)CN2CC(C)OC(C)C2)cc1 (stereo not drawn) [Compound A0044] | 209.1
CC1CN(CC(O)COC2CCCCC2)CC(C)O1 (stereo not drawn) [Compound A0017] | 246.0
CC1CN(CC(O)COc2cccc(C(F)(F)F)c2)CC(C)O1 (stereo not drawn) [Compound A0051] | 386.6

same assay, conditions: 1 μM compound + 1 μM β-funaltrexamine

Structure (SMILES) | MOR agonist activity ([35S]GTPγS binding), FLNA-Binding Compound as Agonist 1 μM + BFNA [%]
COc1ccc(OCC(O)CN2CCCc3ccccc32)cc1 (stereo not drawn) [Compound A0067] | 33.9
CC(=O)c1ccc(OCC(O)CN2CC(C)OC(C)C2)cc1 (stereo not drawn) [Compound A0044] | 134.7
CC1CN(CC(O)COC2CCCCC2)CC(C)O1 (stereo not drawn) [Compound A0017] | 65.2
CC1CN(CC(O)COc2cccc(C(F)(F)F)c2)CC(C)O1 (stereo not drawn) [Compound A0051] | 211.6

same assay, conditions: 1 μM compound + BFNA relative to DAMGO + BFNA

Structure (SMILES) | % DAMGO + BFNA [%]
COc1ccc(OCC(O)CN2CCCc3ccccc32)cc1 (stereo not drawn) [Compound A0067] | 98.3
CC(=O)c1ccc(OCC(O)CN2CC(C)OC(C)C2)cc1 (stereo not drawn) [Compound A0044] | 182.3
CC1CN(CC(O)COC2CCCCC2)CC(C)O1 (stereo not drawn) [Compound A0017] | 187.9
CC1CN(CC(O)COc2cccc(C(F)(F)F)c2)CC(C)O1 (stereo not drawn) [Compound A0051] | 286.3

same assay, conditions: 1 μM compound relative to DAMGO

Structure (SMILES) | % DAMGO (1 μM) [%]
COc1ccc(OCC(O)CN2CCCc3ccccc32)cc1 (stereo not drawn) [Compound A0067] | 115.8
CC(=O)c1ccc(OCC(O)CN2CC(C)OC(C)C2)cc1 (stereo not drawn) [Compound A0044] | 75.8
CC1CN(CC(O)COC2CCCCC2)CC(C)O1 (stereo not drawn) [Compound A0017] | 100.4
CC1CN(CC(O)COc2cccc(C(F)(F)F)c2)CC(C)O1 (stereo not drawn) [Compound A0051] | 140.1

same assay, conditions: Series B; 0.1 μM compound, relative to DAMGO

Structure (SMILES) | % DAMGO (0.1 μM) [%]
COc1c2c(cc3c1C(CC(=O)Cc1ccc(C#N)cc1)[N+](C)(C)CC3)OCO2 (stereo not drawn) [Compound B0012] | 97.8

same assay, conditions: Series B; 0.1 μM compound; [35S]GTPγS binding to Gαo, striatal membranes

Structure (SMILES) | MOR agonist activity, percent [35S]GTPγS binding at the stated compound concentration [%]
COc1c2c(cc3c1C(CC(=O)Cc1ccc(C#N)cc1)[N+](C)(C)CC3)OCO2 (stereo not drawn) [Compound B0012] | 167.4

same assay, conditions: Series B; 1 μM compound + 1 μM β-FNA

Structure (SMILES) | MOR agonist activity, percent [35S]GTPγS binding at the stated compound concentration [%]
COc1c2c(cc3c1C(CC(=O)Cc1ccc(C#N)cc1)[N+](C)(C)CC3)OCO2 (stereo not drawn) [Compound B0012] | 145.1

same assay, conditions: Series B; 1 μM compound + β-FNA, relative to DAMGO + BFNA

Structure (SMILES) | % DAMGO + BFNA [%]
COc1c2c(cc3c1C(CC(=O)Cc1ccc(C#N)cc1)[N+](C)(C)CC3)OCO2 (stereo not drawn) [Compound B0012] | 278.5

same assay, conditions: Series B; 1 μM compound, relative to DAMGO

Structure (SMILES) | % DAMGO (1 μM) [%]
COc1c2c(cc3c1C(CC(=O)Cc1ccc(C#N)cc1)[N+](C)(C)CC3)OCO2 (stereo not drawn) [Compound B0012] | 79.4

same assay, conditions: Series B; 1 μM compound; [35S]GTPγS binding to Gαo, striatal membranes

Structure (SMILES) | MOR agonist activity, percent [35S]GTPγS binding at the stated compound concentration [%]
COc1c2c(cc3c1C(CC(=O)Cc1ccc(C#N)cc1)[N+](C)(C)CC3)OCO2 (stereo not drawn) [Compound B0012] | 212.0

same assay, conditions: Series C-2; 0.1 μM compound, relative to DAMGO

Structure (SMILES) | % DAMGO (0.1 μM) [%]
CCN1CCC2(CC1)OCCN2S(=O)(=O)c1ccc(C(C)=O)cc1 [Compound C0094M] | 100.2
O=[N+]([O-])c1ccc(S(=O)(=O)N2CCC3(CC2)NCCO3)cc1 [Compound C0040] | 93.1

same assay, conditions: Series C-2; 0.1 μM compound; [35S]GTPγS binding to Gαo, striatal membranes

Structure (SMILES) | MOR agonist activity, percent [35S]GTPγS binding at the stated compound concentration [%]
CCN1CCC2(CC1)OCCN2S(=O)(=O)c1ccc(C(C)=O)cc1 [Compound C0094M] | 172.5
O=[N+]([O-])c1ccc(S(=O)(=O)N2CCC3(CC2)NCCO3)cc1 [Compound C0040] | 145.8

same assay, conditions: Series C-2; 1 μM compound + 1 μM β-FNA

Structure (SMILES) | MOR agonist activity, percent [35S]GTPγS binding at the stated compound concentration [%]
CCN1CCC2(CC1)OCCN2S(=O)(=O)c1ccc(C(C)=O)cc1 [Compound C0094M] | 115.3
O=[N+]([O-])c1ccc(S(=O)(=O)N2CCC3(CC2)NCCO3)cc1 [Compound C0040] | 90.4

same assay, conditions: Series C-2; 1 μM compound + β-FNA, relative to DAMGO + BFNA

Structure (SMILES) | % DAMGO + BFNA [%]
CCN1CCC2(CC1)OCCN2S(=O)(=O)c1ccc(C(C)=O)cc1 [Compound C0094M] | 334.2
O=[N+]([O-])c1ccc(S(=O)(=O)N2CCC3(CC2)NCCO3)cc1 [Compound C0040] | 277.3

same assay, conditions: Series C-2; 1 μM compound, relative to DAMGO

Structure (SMILES) | % DAMGO (1 μM) [%]
CCN1CCC2(CC1)OCCN2S(=O)(=O)c1ccc(C(C)=O)cc1 [Compound C0094M] | 119.9
O=[N+]([O-])c1ccc(S(=O)(=O)N2CCC3(CC2)NCCO3)cc1 [Compound C0040] | 133.2

same assay, conditions: Series C-2; 1 μM compound; [35S]GTPγS binding to Gαo, striatal membranes

Structure (SMILES) | MOR agonist activity, percent [35S]GTPγS binding at the stated compound concentration [%]
CCN1CCC2(CC1)OCCN2S(=O)(=O)c1ccc(C(C)=O)cc1 [Compound C0094M] | 263.5
O=[N+]([O-])c1ccc(S(=O)(=O)N2CCC3(CC2)NCCO3)cc1 [Compound C0040] | 308.3
